# Patent US9283222B2 (priority 2006, dated 2016)
# Biological target: Recombinant Human Poly(ADP-Ribose) Polymerase (PARP), PARP-1 (Homo sapiens (Human), UniProt P09874)
# Settings: read-out: PARP-1 (Ki)
# Sequence of Recombinant Human Poly(ADP-Ribose) Polymerase (PARP), PARP-1 (P09874 whole entry): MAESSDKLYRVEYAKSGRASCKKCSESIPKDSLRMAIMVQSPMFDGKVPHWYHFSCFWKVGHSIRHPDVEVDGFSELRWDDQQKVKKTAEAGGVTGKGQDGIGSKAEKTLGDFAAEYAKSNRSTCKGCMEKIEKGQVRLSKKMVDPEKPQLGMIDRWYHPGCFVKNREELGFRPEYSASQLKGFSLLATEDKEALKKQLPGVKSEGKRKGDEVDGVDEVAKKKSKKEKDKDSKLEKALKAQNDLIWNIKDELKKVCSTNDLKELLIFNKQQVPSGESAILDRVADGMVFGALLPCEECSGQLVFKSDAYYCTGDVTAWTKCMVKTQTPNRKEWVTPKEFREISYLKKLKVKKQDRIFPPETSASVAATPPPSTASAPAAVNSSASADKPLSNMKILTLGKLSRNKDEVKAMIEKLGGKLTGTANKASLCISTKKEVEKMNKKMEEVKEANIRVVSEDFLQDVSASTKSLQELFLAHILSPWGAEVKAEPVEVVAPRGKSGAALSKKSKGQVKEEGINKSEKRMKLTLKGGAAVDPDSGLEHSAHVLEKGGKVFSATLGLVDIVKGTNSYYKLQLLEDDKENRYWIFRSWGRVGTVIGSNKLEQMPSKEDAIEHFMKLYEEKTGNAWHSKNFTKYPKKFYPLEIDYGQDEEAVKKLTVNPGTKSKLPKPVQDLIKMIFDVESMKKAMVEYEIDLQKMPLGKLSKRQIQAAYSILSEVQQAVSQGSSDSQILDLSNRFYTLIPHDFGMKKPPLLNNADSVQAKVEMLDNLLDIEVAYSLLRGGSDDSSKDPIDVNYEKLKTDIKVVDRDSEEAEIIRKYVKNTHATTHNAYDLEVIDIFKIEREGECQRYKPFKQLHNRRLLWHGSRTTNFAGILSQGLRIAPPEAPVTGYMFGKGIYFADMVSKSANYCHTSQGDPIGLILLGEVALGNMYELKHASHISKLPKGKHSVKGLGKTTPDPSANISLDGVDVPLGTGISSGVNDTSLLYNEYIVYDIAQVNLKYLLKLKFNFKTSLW
row,Ki [nM],Compound
1,173,"CC(C)C[C@H](NC(=O)Nc1cc(Cc2n[nH]c(=O)c3c2CCCC3)ccc1F)C(=O)O [Example 626, N-[({2-fluoro-5-[(4-oxo-3,4,5,6,7,8-hexahydrophthalazin-1-yl)methyl]phenyl}amino)carbonyl]leucine]"

# Same assay, conditions: read-out: PARP-1 (Ki); Table 1; text calls the values EC50s
row,Ki [nM],Compound
1,25,"CC(C)(C)OC(=O)N1CCN(C(=O)c2cc(Cc3n[nH]c(=O)c4c3NCCC4)ccc2F)[C@H](c2ccccc2)C1 [Example 614, tert-butyl (3R)-4-{2-fluoro-5-[(5-oxo-1,2,3,4,5,6-hexahydropyrido[2,3-d]pyridazin-8-yl)methyl]benzoyl}-3-phenylpiperazine-1-carboxylate]"
2,2.3,"C[C@@H]1CN(C(=O)c2ccccc2)CCN1C(=O)c1cc(Cc2n[nH]c(=O)c3c2NCCC3)ccc1F [Example 616, 8-(3-{[(2R)-4-benzoyl-2-methylpiperazin-1-yl]carbonyl}-4-fluorobenzyl)-2,3,4,6-tetrahydropyrido[2,3-d]pyridazin-5(1H)-one]"
3,41,"CN(C(=O)Nc1cc(Cc2n[nH]c(=O)c3c2CCCC3)ccc1F)c1ccccc1 [Example 618, N′-{2-fluoro-5-[(4-oxo-3,4,5,6,7,8-hexahydrophthalazin-1-yl)methyl]phenyl}-N-methyl-N-phenylurea]"
4,4,"CCN(C(C)=O)C1CCN(C(=O)c2cc(Cc3n[nH]c(=O)c4c3CCCC4)ccc2F)C1 (stereo not drawn) [Example 619, N-ethyl-N-(1-{2-fluoro-5-[(4-oxo-3,4,5,6,7,8-hexahydrophthalazin-1-yl)methyl]benzoyl}pyrrolidine-3-yl)acetamide]"
5,2.2,"COc1ccc(S(=O)(=O)N2CCN(C(=O)c3cc(Cc4n[nH]c(=O)c5c4CCCC5)ccc3F)CC2)cc1 [Example 620, 4-[4-fluoro-3-({4-[(4-methoxyphenyl)sulfonyl]piperazin-1-yl}carbonyl)benzyl]-5,6,7,8-tetrahydrophthalazin-1(2H)-one]"
6,8,"O=C(c1cc(Cc2n[nH]c(=O)c3c2CCCC3)ccc1F)N1CCN(c2cccc(C(F)(F)F)c2)CC1 [Example 621, 4-[4-fluoro-3-({4-[3-(trifluoromethyl)phenyl]piperazin-1-yl}carbonyl)benzyl]-5,6,7,8-tetrahydrophthalazin-1(2H)-one]"
7,2.4,"COc1ccc(C(=O)N2CCN(C(=O)c3cc(Cc4n[nH]c(=O)c5c4CCCC5)ccc3F)CC2)cc1 [Example 622, 4-(4-fluoro-3-{[4-(4-methoxybenzoyl)piperazin-1-yl]carbonyl}benzyl)-5,6,7,8-tetrahydrophthalazin-1(2H)-one]"
8,3,"COc1ccc(N2CCN(C(=O)c3cc(Cc4n[nH]c(=O)c5c4CCCC5)ccc3F)CC2)cc1 [Example 623, 4-(4-fluoro-3-{[4-(4-methoxyphenyl)piperazin-1-yl]carbonyl}benzyl)-5,6,7,8-tetrahydrophthalazin-1(2H)-one]"
9,2.5,"O=C(c1cc(Cc2n[nH]c(=O)c3c2CCCC3)ccc1F)N1CCN(C(=O)C2CCCCC2)CC1 [Example 624, 4-(3-{[4-(cyclohexylcarbonyl)piperazin-1-yl]carbonyl}-4-fluorobenzyl)-5,6,7,8-tetrahydrophthalazin-1(2H)-one]"
10,21,"O=C(O)CNC(=O)Nc1cc(Cc2n[nH]c(=O)c3c2CCCC3)ccc1F [Example 625, N-[({2-fluoro-5-[(4-oxo-3,4,5,6,7,8-hexahydrophthalazin-1-yl)methyl]phenyl}amino)carbonyl]glycine]"
11,85,"C[C@H](NC(=O)Nc1cc(Cc2n[nH]c(=O)c3c2CCCC3)ccc1F)C(=O)O [Example 627, N-[({2-fluoro-5-[(4-oxo-3,4,5,6,7,8-hexahydrophthalazin-1-yl)methyl]phenyl}amino)carbonyl]alanine]"
12,54,"O=C(Nc1cc(Cc2n[nH]c(=O)c3c2CCCC3)ccc1F)N[C@@H](Cc1ccccc1)C(=O)O [Example 628, N-[({2-fluoro-5-[(4-oxo-3,4,5,6,7,8-hexahydrophthalazin-1-yl)methyl]phenyl}amino)carbonyl]phenylalanine]"
13,0.7,"O=C1CNC(=O)N1c1cc(Cc2n[nH]c(=O)c3c2CCCC3)ccc1F [Example 630, 3-{2-fluoro-5-[(4-oxo-3,4,5,6,7,8-hexahydrophthalazin-1-yl)methyl]phenyl}imidazolidine-2,4-dione]"
14,2.8,"COc1ccccc1N1CCN(C(=O)c2cc(Cc3n[nH]c(=O)c4c3NCCC4)ccc2F)CC1 [Example 631, 8-(4-fluoro-3-{[4-(2-methoxyphenyl)piperazin-1-yl]carbonyl}benzyl)-2,3,4,6-tetrahydropyrido[2,3-d]pyridazin-5(1H)-one]"
15,0.9,"O=C(c1cc(Cc2n[nH]c(=O)c3c2NCCC3)ccc1F)N1CCN(c2ncncn2)CC1 [Example 632, 8-(4-fluoro-3-{[4-(1,3,5-triazin-2-yl)piperazin-1-yl]carbonyl}benzyl)-2,3,4,6-tetrahydropyrido[2,3-d]pyridazin-5(1H)-one]"
16,1.8,"CC1(C(=O)N2CCCN(C(=O)c3cc(Cc4n[nH]c(=O)c5c4CCCC5)ccc3F)CC2)CC1 [Example 635, 4-[4-fluoro-3-({4-[(1-methylcyclopropyl)carbonyl]-1,4-diazepan-1-yl}carbonyl)benzyl]-5,6,7,8-tetrahydrophthalazin-1(2H)-one]"
17,1.8,"Cn1cnc(C(=O)N2CCCN(C(=O)c3cc(Cc4n[nH]c(=O)c5c4CCCC5)ccc3F)CC2)c1 [Example 636, 4-[4-fluoro-3-({4-[(1-methyl-1H-imidazol-4-yl)carbonyl]-1,4-diazepan-1-yl}carbonyl)benzyl]-5,6,7,8-tetrahydrophthalazin-1(2H)-one]"
18,4,"Cn1cncc1C(=O)N1CCCN(C(=O)c2cc(Cc3n[nH]c(=O)c4c3CCCC4)ccc2F)CC1 [Example 637, 4-[4-fluoro-3-({4-[(1-methyl-1H-imidazol-5-yl)carbonyl]-1,4-diazepan-1-yl}carbonyl)benzyl]-5,6,7,8-tetrahydrophthalazin-1(2H)-one]"
19,0.7,O=C(c1cc(Cc2n[nH]c(=O)c3c2NCCC3)ccc1F)N1CCN(C(=O)C2CCCC2)CC1 [Example 640]
20,1.3,O=C(c1ccc(Cl)cn1)N1CCN(C(=O)c2cc(Cc3n[nH]c(=O)c4c3NCCC4)ccc2F)CC1 [Example 641]
21,1.2,CC(C)n1nnc2cc(C(=O)N3CCN(C(=O)c4cc(Cc5n[nH]c(=O)c6c5NCCC6)ccc4F)CC3)ccc21 [Example 643]
22,3,CN1CCN(C2CCN(C(=O)c3cc(Cc4n[nH]c(=O)c5c4NCCC5)ccc3F)CC2)CC1 [Example 644]
23,1.5,O=C(c1ccc2ccccc2n1)N1CCN(C(=O)c2cc(Cc3n[nH]c(=O)c4c3NCCC4)ccc2F)CC1 [Example 645]
24,0.7,O=C(c1ccc(Cl)nc1)N1CCN(C(=O)c2cc(Cc3n[nH]c(=O)c4c3NCCC4)ccc2F)CC1 [Example 646]
25,1.7,CC(C)n1c(C(F)(F)F)nc2cc(C(=O)N3CCN(C(=O)c4cc(Cc5n[nH]c(=O)c6c5NCCC6)ccc4F)CC3)ccc21 [Example 647]
26,0.6,O=C(c1ccc(O)nc1)N1CCN(C(=O)c2cc(Cc3n[nH]c(=O)c4c3NCCC4)ccc2F)CC1 [Example 649]
27,1.1,O=C(c1cnc(Cl)c(O)c1)N1CCN(C(=O)c2cc(Cc3n[nH]c(=O)c4c3NCCC4)ccc2F)CC1 [Example 651]
28,1.2,Cc1nc2cc(C(=O)N3CCN(C(=O)c4cc(Cc5n[nH]c(=O)c6c5NCCC6)ccc4F)CC3)ccc2[nH]1 [Example 654]
29,0.7,O=C(c1ccc2nc[nH]c2c1)N1CCN(C(=O)c2cc(Cc3n[nH]c(=O)c4c3NCCC4)ccc2F)CC1 [Example 655]
